Measured values reported in patent US20110152362A1, “METHODS OF TREATING EPILEPTOGENESIS AND EPILEPSY” (priority 2004, published 2011).
Several values for one entry are separate records, joined by “and”; a condition that tells them apart may be missing. Identical values can stand only once.

Key:
[1] = test system: rats subjected to li-pilo SE; test: Example 2: quantification of cell densities 14 days after li-pilo SE;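 further: Thionine-stained 20 µm brain sections, neurons with cell bodies above 10 µm counted, value is the mean of 12 fields per structure from three adjacent sections, both sides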
Method: All rats received lithium chloride (3 meq/kg, i.p., Sigma, St Louis, Mo., U.S.A.) and about 20 h later, all animals received also methylscopolamine bromide (1 mg/kg, s.c., Sigma) that was administered to limit the peripheral effects of the convulsant. […] The effects of increasing doses of TC were studied in 5 groups of rats. […] The control group received vehicle instead of pilocarpine and TC.
For neuronal counting, animals were deeply anesthetized with 1.8 g/kg pentobarbital (Dolethal®, Vetoquinol, Lure, France). Brains were then removed and frozen. Serial 20 μm slices were cut in a cryostat, air-dried during several days before thionine staining. […] The grid of counting was placed on a well defined area of the cerebral structure of interest and counting was carried out with a microscopic enlargement of 200- or 400-fold defined for each single cerebral structure. Cell counts were performed twice on each side of three adjacent sections for each region by a single observer unaware of the animal's treatment. The number of cells obtained in the 12 counted fields in each cerebral structure was averaged. This procedure was used to minimize the potential errors that could result from double counting leading to overestimation of cell numbers. […] Counts involved only neurons with cell bodies larger than 10 μm. Cells with small cell bodies were considered as glial cells and were not counted.
For neuronal damage and epileptogenesis, statistical analysis between groups was performed by means of a one-way analysis of variance followed by a post-hoc Dunnett or Fisher test using the Statistica software.

[2] = test system: rats subjected to li-pilo SE; test: Example 2: mortality over the first 48 h after Li-pilo SE; assay type: in vivo, rat; parameters: concentration or dose not given beside the values; settings: DZP
[3] = test system: rats subjected to Li-pilo induced SE; test: Example 1: quantification of cell densities in hippocampus, thalamus and cortex after Li-pilo SE; assay type: in vivo, rat; settings: pilo-DZP rats
Method: (§1) The effects of increasing doses of the Test Compound were studied on 3 groups of rats. The animals of the first group received 10 mg/kg of the test compound, i.p., 1 h after the onset of SE (pilo-TC10) while the animals of groups 2 and 3 received 30 and 60 mg/kg of the Test Compound (pilo-TC30 and pilo-TC60), respectively.
(§2) The control group received saline instead of pilocarpine and the Test Compound (saline-saline). […] Pilo-DZP received a second injection of 1 mg/kg DZP on the day of SE at about 10 h after the first one. Thereafter, Pilo-DZP and saline-saline rats received twice daily an equivalent volume of saline.
Quantification of cell densities was performed at 6 days after SE on 8 pilo-DZP, 8 pilo-TC10, 7 pilo-TC30, 7 pilo-TC60, and 6 saline-saline rats. […] Counts involved only cells larger than 10 μm, smaller ones being considered as glial cells.
For the comparison of the characteristics of SE in pilo-saline and pilo-test compound animals, a non-paired Student's t-test was used. The comparison between the number of rats seizing in both groups was performed by means of a Chi square test. For neuronal damage, statistical analysis between groups was performed using ANOVA followed by a Fisher's test for multiple comparisons using the Statview software (Fisher R A, 1946a, Statistical Methods for Research Workers (10th edition) Oliver & Boyd, Edinburgh; Fisher R A, 1946b, The Design of Experiments (4th edition) Oliver & Boyd, Edinburgh)

[4] = test system: rats subjected to Li-pilo induced SE; test: Example 1: latency to and frequency of spontaneous recurrent seizures (SRS), lithium-pilocarpine model; assay type: in vivo, rat
Method: (§3) The bilateral EEG cortical activity was recorded during the whole duration of SE and behavioral changes were noted.
as §1, §2
The effects of the test compound on the EEG and on the latency to occurrence of SRS were investigated by daily video recording of the animals for 10 h per day and the recording of the electrographic activity twice a week for 8 h.
To calculate the frequency of SRS in pilocarpine-exposed rats, the seizure severity and distinguished stage III (clonic seizures of facial muscles and anterior limbs) and stage IV-V seizures (rearing and falling) was measured. The frequency of stage III SRS per week in pilo-DZP and pilo-test compound rats was variable amongst the groups. It was low, constant in the pilo-DZP and pilo-TC60 (with early SRS onset) groups during the first 3 weeks and had disappeared during the 4th week in the pilo-DZP group. […] The frequency of more severe stage IV-V SRS was highest during the first week in most groups, except pilo-TC30 and TC60 with late seizure onset where the SRS frequency was constant over the whole 4 weeks in TC30 group and over the first two weeks in the pilo-TC60 group with late SRS onset in which no stage IV-V seizures where no seizures recorded after the second week.

[5] = test system: rats subjected to Li-pilo induced SE; test: Example 1: Timm staining, mossy fiber sprouting in hippocampus; assay type: in vivo, rat; settings: pilo-DZP rats
Method: At 2 months after the onset of spontaneous recurrent seizures, mossy fiber sprouting was examined on rats in the chronic period exposed to the test compound or DZP and in 3 saline-saline rats. Animals were deeply anaesthetized and perfused transcardially with saline followed by 100 ml of 1.15% (w/v) Na2S in 0.1 M phosphate buffer, and 100 ml of 4% (v/v) formaldehyde in 0.1 M phosphate buffer. Brains were removed from skull, post-fixed in 4% formaldehyde during 3-5 h and 40 μm sections were cut on a sliding vibratome and mounted on gelatin-coated slides.
The following day, sections were developed in the dark in a 26° C. solution of 50% (w/v) arabic gum (160 ml), sodium citrate buffer (30 ml), 5.7% (w/v) hydroquinone (80 ml) and 10% (w/v) silver nitrate (2.5 ml) during 40-45 min. The sections were then rinsed with tap water at 40° C. during at least 45 min, rinsed rapidly with distilled water and allowed to dry. They were dehydrated in ethanol and coverslipped.
Mossy fiber sprouting was evaluated according to criteria previously described in dorsal hippocampus (Cavazos et al., 1991, J Neurosci 11:2795-2803.), which are follows: 0—no granules between the tips and crest of the DG; 1—sparse granules in the supragranular region in a patchy distribution between the tips and crest of DG; 2—more numerous granules in a continuous distribution between the tips and crest of DG; 3—prominent granules in a continuous pattern between tips and crest, with occasional patches of confluent granules between tips and crest; 4—prominent granules that form a confluent dense laminar band between tips and crest and 5—confluent dense laminar band of granules that extends into the inner molecular layer.

[6] = test system: rats subjected to Li-pilo induced SE; test: Example 1: mortality induced by lithium-pilocarpine status epilepticus; assay type: in vivo, rat; settings: pilo-DZP, 2 mg/kg i.m. 1 h after onset of SE
Method: as §3, §1, §2

[7] = test system: rats subjected to li-pilo SE; test: Example 2: latency to and frequency of spontaneous seizures (video recording); assay type: in vivo, rat; settings: DZP group, 2.5 mg/kg i.m.; 2.5 mg/kg
Method: The effects of DZP and the 4 doses of TC on epileptogenesis were investigated by daily video recording of the animals for 10 h per day. Video recording was performed for 4 weeks during which the occurrence of the first seizure was noted as well as the total number of seizures over the whole period. Animals were then taken off the video recording system and kept for 4 additional weeks in our animal facilities before they were sacrificed after a total period of 8 weeks of epilepsy.

[8] = pilo-DZP (DZP 2.5 mg/kg i.m.), 14 days after li-pilo SE

## CN1C(=O)CN=C(c2ccccc2)c2cc(Cl)ccc21 [DZP, diazepam, reference compound]
[1]; DZP group, 14 days after SE
  neurons surviving in entorhinal cortex, dorsal and ventral: 27-81%
[1]; DZP rats, 14 days after SE
  damage vs control, dorsal entorhinal cortex layer II: 18%
  damage vs control, dorsal entorhinal cortex layers III-IV: 24%
  damage vs control, ventral entorhinal cortex layer II: 22% and 19%
  damage vs control, ventral entorhinal cortex layers III/IV: 74% and 73%
  neuronal damage, amygdala central nucleus: no neuronal damage
  neuronal drop out vs control, CA1 pyramidal cell layer: 85%
  neuronal drop out vs control, amygdala basolateral nucleus: 73%
  neuronal drop out vs control, amygdala medial dorsal anterior nucleus: 53%
  neuronal drop out vs control, thalamus central medial nucleus: 34%
  neuronal drop out vs control, thalamus dorsolateral medial dorsal nucleus: 40%
  neuronal drop out vs control, thalamus mediodorsal central nucleus: 18%
  neuronal drop out vs control, thalamus mediodorsal lateral nucleus: 24%
  neuronal loss vs control, CA3 region: 40%
  neuronal loss vs control, amygdala medial ventral posterior nucleus: 38%
  neuronal loss vs control, hilus of dentate gyrus: 65% and 66%
  neuronal loss vs control, piriform cortex dorsal layer II: 66%
  neuronal loss vs control, piriform cortex layer III: 94%
  neuronal loss vs control, piriform cortex ventral layer II: 89%
  neuronal loss vs control, thalamus mediodorsal nucleus: 49%
  neuronal loss vs control, ventral lateral division of the dorsolateral nucleus: 90%
[1]; [8]
  number of neuronal cell bodies: Amygdala Basolateral: 12.8 ± 5.3
  number of neuronal cell bodies: Amygdala Medial, dorsal anterior: 40.0 ± 2.5
  number of neuronal cell bodies: Amygdala Medial, ventral posterior: 21.8 ± 2.4
  number of neuronal cell bodies: Cerebral cortex Entorhinal, layer II, dorsal: 23.5 ± 0.7
  number of neuronal cell bodies: Cerebral cortex Entorhinal, layer II, ventral: 21.7 ± 1.3
  number of neuronal cell bodies: Cerebral cortex Entorhinal, layer III/IV, dorsal: 22.3 ± 0.5
  number of neuronal cell bodies: Cerebral cortex Entorhinal, layer III/IV, ventral: 7.7 ± 2.3
  number of neuronal cell bodies: Cerebral cortex Piriform, layer II, dorsal: 12.6 ± 4.2
  number of neuronal cell bodies: Cerebral cortex Piriform, layer II, ventral: 3.6 ± 0.7
  number of neuronal cell bodies: Cerebral cortex Piriform, layer III: 1.2 ± 1.2
  number of neuronal cell bodies: Hippocampus CA1 area: 10.9 ± 1.9
  number of neuronal cell bodies: Hippocampus CA3 area: 31.3 ± 2.9
  number of neuronal cell bodies: Hippocampus Hilus: 33.5 ± 3.0
  number of neuronal cell bodies: Thalamus Central medial: 74.2 ± 7.4
  number of neuronal cell bodies: Thalamus Dorsolateral, medial, dorsal: 61 ± 6.3
  number of neuronal cell bodies: Thalamus Dorsolateral, ventral lateral: 9.7 ± 2.5
  number of neuronal cell bodies: Thalamus Mediodorsal central: 26.3 ± 1.8
  number of neuronal cell bodies: Thalamus Mediodorsal lateral: 19.6 ± 0.8
  number of neuronal cell bodies: Thalamus Mediodorsal medial: 16.4 ± 1.9
[2]; group for cell counting at 14 days
  mortality over the first 48 h after SE: 36%
[2]; group for latency to SRS and late cell counting
  mortality over the first 48 h after SE: 7%
[3]
  cell loss vs saline-saline, CA1 pyramidal cell layer: 70% and 75%
  cell loss vs saline-saline, CA3a: 54%
  cell loss vs saline-saline, CA3b: 31%
  cell loss vs saline-saline, hilus of dentate gyrus: 73%
  cell loss vs saline-saline, lateral thalamic nucleus: 91%
  cell loss vs saline-saline, mediodorsal thalamic nucleus: 56%
  cell loss vs saline-saline, piriform cortex layer II: 53%
  cell loss vs saline-saline, ventral entorhinal cortex layers III-IV: 44%
  cell loss, piriform cortex layers III-IV: total
  damage vs saline-saline, dorsal entorhinal cortex layer II: 9%
  damage vs saline-saline, dorsal entorhinal cortex layers III-IV: 15%
  damage, ventral entorhinal cortex layer II: totally preserved
[4]; first week, pilo-DZP group
  frequency of stage IV-V SRS: 11.3 SRS per week
[4]; pilo-DZP rats
  latency to SRS: 18.2 ± 6.9 days
[5]
  Timm score in the upper blade of the dentate gyrus, mean: 2.8±0.8
[6]
  mortality during the first 48 h after SE: 23%
[7]
  Latency to the first spontaneous seizure: 15.5 ± 2.3 days and 15.5 ± 2.34 days
